For 15 compounds, MIC results are on record in ChEMBL document CHEMBL3352048, “Development of 2-(4-oxoquinazolin-3(4H)-yl)acetamide derivatives as novel enoyl-acyl carrier protein reductase (InhA) inhibitors for the treatment of tuberculosis” (Eur J Med Chem, 2014).

SMILES strings stand for the structures.

The test system of the experiment is Mycobacterium tuberculosis. Description: Antimycobacterial activity against isoniazid, rifampicin, ofloxacin and kanamycin-resistant Mycobacterium tuberculosis H37Rv ATCC 27294 clinical isolate after 28 days by two-fold serial dilution assay in presence of […] piperine efflux pump inhibitor. Type of experiment: functional. The following applies: H37Rv ATCC 27294, 672 h.
Usually MIC stands for the least concentration at which growth counts as inhibited. With `O=C(Cn1cnc2ccccc2c1=O)NCc1cccs1`, the MIC is 20.9 µM.

On to `O=C(Cn1cnc2ccccc2c1=O)NCc1ccco1`, for which the MIC was 11 µM.

For the compound `O=C(Cn1cnc2ccccc2c1=O)Nc1ccccc1`, the MIC was 22.4 µM.

In the case of `O=C(Cn1cnc2ccc(Cl)cc2c1=O)Nc1ccccc1`, the MIC was 39.8 µM.

`O=C(Cn1cnc2ccccc2c1=O)Nc1cc(C(F)(F)F)ccc1Cl`: the MIC came to 8.18 µM.

In the case of `O=C(Cn1cnc2ccc(Cl)cc2c1=O)Nc1cc(C(F)(F)F)ccc1Cl`, the minimal inhibitory concentration (MIC) worked out at 60.1 µM.

Turning to `O=C(Cn1cnc2ccc(Cl)cc2c1=O)NCc1ccco1`, the MIC was 39.3 µM.

Consider `O=C(Cn1cnc2ccc(Cl)cc2c1=O)NCc1cccs1`, for which the MIC stood at 37.4 µM.

Take `Cc1nc2ccc(Cl)cc2c(=O)n1CC(=O)Nc1ccccc1`: the MIC was 19.1 µM.

Take `Cc1nc2ccc(Cl)cc2c(=O)n1CC(=O)NCc1ccco1`: the MIC worked out at 18.8 µM.

Regarding `Cc1nc2ccccc2c(=O)n1CC(=O)NCc1cccs1`, the MIC came to 19.9 µM.

With `O=C(Cn1cnc2ccccc2c1=O)NCc1nc2ccc([N+](=O)[O-])cc2s1`, the MIC worked out at 4.09 µM.

For the compound `CC[C@@H](CO)NCCN[C@@H](CC)CO` [ETHAMBUTOL], the MIC turned out to be 245 µM.

Consider `NNC(=O)c1ccncc1` [ISONIAZID], for which the minimal inhibitory concentration (MIC) came to 45.6 µM.

For the compound `CO[C@H]1/C=C/O[C@@]2(C)Oc3c(C)c(O)c4c(O)c(c(/C=N/N5CCN(C)CC5)c(O)c4c3C2=O)NC(=O)/C(C)=C\C=C\[C@H](C)[C@H](O)[C@@H](C)[C@@H](O)[C@@H](C)[C@H](OC(C)=O)[C@@H]1C` [RIFAMPIN], the MIC is 30.4 µM.
